Assay results reported in the supplement of paper PMC6965134.
± gives the standard deviation of the averaged measurements.

Experiment: TIMS collisional cross section (CCS, N2) of the lipid ion; higher = larger ion cross section
Details: ionization mode: positive, one isomer drawn
Method: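 Lipid extracts of human plasma (NIST SRM 1950), mouse liver and HeLa cells were separated by nanoflow C18 LC (30 min gradient, 60 °C) and analysed by TIMS-PASEF on a timsTOF Pro in positive ion mode. Ion mobility was calibrated with the Agilent tuning mix and converted to collisional cross sections (Mason–Schamp) in N2 drift gas. Lipids were identified by MS/MS (SimLipid) and manual curation. SMILES are LIPID MAPS representative structures for the annotated lipid.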

Row | TIMS collisional cross section (sample type: HeLa) | TIMS collisional cross section (sample type: Liver) | TIMS collisional cross section (sample type: plasma) | SMILES
1 | 294 Å² | 293.7 Å² | – | CCCCCCCC/C=C\C/C=C\C/C=C\CCCC(=O)O[C@H](COC(=O)CCCCCCC/C=C\CCCCCCCC)COP(=O)([O-])OCC[N+](C)(C)C [PC 18:1_20:3] (ion (formula + adduct): [C46H84NO8P+H] 1+)
2 | – | 223.9 Å² | – | CCCCC/C=C\C/C=C\C/C=C\C/C=C\CCCCCC(=O)O[C@H](CO)COP(=O)(O)OCCN [LPE 22:4] (ion (formula + adduct): [C27H48NO7P+H] 1+)
3 | 282.1 Å² | – | – | CCCCCCCCCCCCCCCC(=O)O[C@H](COC(=O)CCCCCCCCCCCCCC)COP(=O)([O-])OCC[N+](C)(C)C [PC 15:0_16:0] (ion (formula + adduct): [C39H78NO8P+H] 1+)
4 | 331.3 Å² | – | – | CC/C=C\C/C=C\C/C=C\C/C=C\C/C=C\C/C=C\CCC(=O)OC[C@@H](COC(=O)CCCCCCC/C=C\CCCCCCCC)OC(=O)CCCCCCC/C=C\CCCCCCCC [TG 18:1_18:1_22:6] (ion (formula + adduct): [C61H102O6+NH4] 1+)
5 | – | 333 Å² | 333.1 Å² | CCCCCCCC/C=C\CCCCCCCC(=O)O[C@H](COC(=O)CCCCCCCCCCCCCCC)COC(=O)CCCCCCCCCCCCCCCCCCCC [TG 16:0_18:1_21:0] (ion (formula + adduct): [C58H110O6+NH4] 1+)
6 | 252.4 Å² | 252.7 Å² | – | CCCCCCCCCCCCCCCC(=O)O[C@@H](CO)COC(=O)CCCCCCCCCCCCC [DG 14:0_16:0_0:0] (ion (formula + adduct): [C33H64O5+NH4] 1+)
7 | – | 332.5 Å² | 332.1 Å² | CCCCC/C=C\C/C=C\C/C=C\C/C=C\CCCCCC(=O)OC[C@@H](COC(=O)CCCCCCC/C=C\CCCCCCCC)OC(=O)CCCCCCC/C=C\C/C=C\CCCCC [TG 18:1_18:2_22:4] (ion (formula + adduct): [C61H104O6+NH4] 1+)
8 | 282.3 Å² | – | – | CCCC/C=C\CCCCCCCC(=O)OC[C@H](COP(=O)([O-])OCC[N+](C)(C)C)OC(=O)CCCCCCCCCCCCCCCCC [PC 14:1@_18:0] (ion (formula + adduct): [C40H78NO8P+H] 1+)
9 | – | – | 225.77 ± 1.4 Å² | CCCCCC/C=C/CCCCCCCC(=O)OC[C@@H](O)COP(=O)([O-])OCC[N+](C)(C)C [LPC 16:1_0:0] (ion (formula + adduct): [C24H48NO7P+H] 1+)
10 | 295.9 Å² | – | – | CCCCC/C=C\C/C=C\CCCCCCCCCC(=O)O[C@H](COC(=O)CCCCCCC/C=C\CCCCCCCC)COP(=O)([O-])OCC[N+](C)(C)C [PC 18:1_20:2] (ion (formula + adduct): [C46H86NO8P+H] 1+)
11 | – | 329.3 Å² | 329 Å² | CCCCCCCCCCCCCCCCCCC(=O)OC[C@@H](COC(=O)CCCCCCCCCCCCCCC)OC(=O)CCCCCCCCCCCCCCCCC [TG 16:0_18:0_19:0] (ion (formula + adduct): [C56H108O6+NH4] 1+)
12 | 275.8 Å² | – | – | CCCCCC/C=C\CCCCCCCC(=O)O[C@H](COC(=O)CCCCCCCCCCCCC)COP(=O)([O-])OCC[N+](C)(C)C [PC 14:0_16:1] (ion (formula + adduct): [C38H74NO8P+H] 1+)
13 | 311 Å² | – | – | CCCCC/C=C\C/C=C\C/C=C\C/C=C\CCCC(=O)OC[C@@H](COC(=O)CCCCCCCCCCCCC)OC(=O)CCCCCCC/C=C\CCCCCC [TG 14:0_16:1_20:4] (ion (formula + adduct): [C53H92O6+NH4] 1+)
14 | 332.3 Å² | – | – | CCCCC/C=C\C/C=C\CCCCCCCCCCCC(=O)OC[C@@H](COC(=O)CCCCCCC/C=C\CCCCCC)OC(=O)CCCCCCC/C=C\CCCCCCCCC [TG 16:1_19:1_22:2] (ion (formula + adduct): [C60H108O6+NH4] 1+)
15 | – | 306.1 Å² | 307.8 ± 0.92 Å² | CCCCC/C=C\C/C=C\CCCCCCCC(=O)OC[C@@H](COC(=O)CCCCCCCCCCCCC)OC(=O)CCCCCCC/C=C\CCCCCC [TG 14:0_16:1_18:2] (ion (formula + adduct): [C51H92O6+NH4] 1+)
16 | 286.6 Å² | – | – | CCCCCCCC/C=C\CCCCCCCC(=O)O[C@H](COC(=O)/C=C\CCCCCCCCCCCCC)COP(=O)([O-])OCC[N+](C)(C)C [PC 16:1_18:1] (ion (formula + adduct): [C42H80NO8P+H] 1+)
17 | – | 292.8 Å² | 291.1 Å² | CCCCC/C=C\C=C/CCCCCCCCC(=O)O[C@H](COC(=O)CCCCCCCCCCCCCCCCC)COP(=O)([O-])OCC[N+](C)(C)C [PC 18:0_18:2] (ion (formula + adduct): [C44H84NO8P+H] 1+)
18 | 328.8 Å² | – | – | CC/C=C\C/C=C\C/C=C\C/C=C\C/C=C\CCCCCC(=O)OC[C@@H](COC(=O)CCCCCCC/C=C\CCCCCCC)OC(=O)CCCCCCC/C=C\CCCCCCCC [TG 17:1_18:1_22:5] (ion (formula + adduct): [C60H102O6+NH4] 1+)

Row | TIMS collisional cross section (sample type: HeLa) | TIMS collisional cross section (sample type: Liver) | TIMS collisional cross section (sample type: plasma) | SMILES
19 | – | 293.8 Å² | – | CCCCC/C=C\C/C=C\C/C=C\C/C=C\C/C=C\CCC(=O)O[C@H](COC(=O)CCCCCCCCCCCCCCC)COP(=O)([O-])OCC[N+](C)(C)C [PC 16:0@_22:5] (ion (formula + adduct): [C46H82NO8P+H] 1+)
20 | – | 266 Å² | 265.8 Å² | CCCCC/C=C\C/C=C\C/C=C\C/C=C\CCCC(=O)O[C@@H](CO)COC(=O)CCCCCCC/C=C\CCCCCCCC [DG 18:1_20:4_0:0] (ion (formula + adduct): [C41H70O5+NH4] 1+)
21 | – | – | 211.2 ± 0.85 Å² | CCCCC/C=C\C/C=C\CCCCCCCC(=O)O[C@H](CO)COP(=O)(O)OCCN [LPE 18:2] (ion (formula + adduct): [C23H44NO7P+H] 1+)
22 | – | – | 335.8 Å² | CCCCC/C=C\C/C=C\CCCCCCCCCCCC(=O)OC[C@@H](COC(=O)CCCCCCC/C=C\CCCCCCCC)OC(=O)CCCCCCC/C=C\C/C=C\CCCCC [TG 18:1_18:2_22:2] (ion (formula + adduct): [C61H108O6+NH4] 1+)
23 | 236.4 Å² | – | – | CCCCCCCCCCCCCCCCCCCCCC(=O)OC[C@@H](O)COP(=O)(O)OCCN [LPE 22:0] (ion (formula + adduct): [C27H56NO7P+H] 1+)
24 | – | 289.7 Å² | – | CCCCC/C=C\C/C=C\C/C=C\C/C=C\CCCCCC(=O)OC[C@H](COP(=O)(O)OCCN)OC(=O)CCCCCCCCCCCCCCCCC [PE 22:4_18:0] (ion (formula + adduct): [C45H82NO8P+H] 1+)
25 | 336.5 Å² | – | – | CCCCC/C=C\C/C=C\C/C=C\CCCCCCCCC(=O)OC[C@@H](COC(=O)CCCCCCCCCCCCCCCCC)OC(=O)CCCCCCC/C=C\CCCCCCCC [TG 18:0_18:1_22:3] (ion (formula + adduct): [C61H110O6+NH4] 1+)
26 | 290.2 Å² | – | – | CCCCC/C=C\C/C=C\C/C=C\C/C=C\CCCCCC(=O)O[C@H](COC(=O)CCCCCCC/C=C\CCCCC)COP(=O)([O-])OCC[N+](C)(C)C [PC 15:1_22:4] (ion (formula + adduct): [C45H80NO8P+H] 1+)
27 | 266.9 Å² | – | – | CCCCCCCCCCCCCC(=O)O[C@H](COC(=O)CCCCCCCCCCC)COP(=O)([O-])OCC[N+](C)(C)C [PC 12:0@_14:0] (ion (formula + adduct): [C34H68NO8P+H] 1+)
28 | – | 280.9 Å² | – | CCCCC/C=C\C/C=C\C/C=C\C/C=C\CCCC(=O)O[C@H](COC(=O)CCCCCC/C=C\C/C=C\C/C=C\CCCCC)COP(=O)(O)OCCN [PE 20:3_20:4@] (ion (formula + adduct): [C45H76NO8P+H] 1+)
29 | 325.4 Å² | – | – | CC/C=C\C/C=C\C/C=C\C/C=C\C/C=C\CCCCCC(=O)OC[C@@H](COC(=O)CCCCCCCCCCCCCCC)OC(=O)CCCCCCC/C=C\CCCCCCC [TG 16:0_17:1_22:5] (ion (formula + adduct): [C58H100O6+NH4] 1+)
30 | – | – | 253.8 Å² | CCCCCCCCCCCCCCCC(=O)OCC(CO)OC(=O)CCCCCCCCCCCCCCC (stereo unspecified) [DG 16:0_16:0_0:0] (ion (formula + adduct): [C35H68O5+Na] 1+)
31 | 262 Å² | – | – | CCCCCC/C=C\CCCCCCCC(=O)OC[C@H](COP(=O)(O)OCCN)OC(=O)CCCCCCCCCCCCC [PE 16:1_14:0] (ion (formula + adduct): [C35H68NO8P+H] 1+)
32 | – | – | 292.6 Å² | CCCCC/C=C\C=C/CCCCCCCCC(=O)O[C@H](COC(=O)CCCCCCCCCCCCCCCCC)COP(=O)([O-])OCC[N+](C)(C)C [PC 18:0@_18:2] (ion (formula + adduct): [C44H84NO8P+H] 1+)
33 | 315.1 Å² | 313.9 Å² | 314.6 Å² | CCCCC/C=C\C/C=C\CCCCCCCC(=O)OC[C@@H](COC(=O)CCCCCCC/C=C\CCCCCC)OC(=O)CCCCCCC/C=C\CCCCCCC [TG 16:1_17:1_18:2] (ion (formula + adduct): [C54H96O6+NH4] 1+)
34 | – | – | 281.4 Å² | CCCCCCCC/C=C\CCCCCCCC(=O)O[C@H](CO/C=C\CCCCCCCCCCCCCCCC)COP(=O)(O)OCCN [PE P- 18:0@_18:1] (ion (formula + adduct): [C41H80NO7P+H] 1+)
35 | 271.2 Å² | 270.8 Å² | – | CCCCC/C=C\C/C=C\C/C=C\C/C=C\CCCCCC(=O)O[C@@H](CO)COC(=O)CCCCCCCCCCCCCCC [DG 16:0_22:4_0:0] (ion (formula + adduct): [C41H72O5+NH4] 1+)
